From patent publication US20150183721A1, “AMINO-ALCOHOL ANALOGUES AND USES THEREOF” (YISSUM RESEARCH DEVELOPMENT COMPANY OF THE HEBREW …, priority 2009, published 2015)
“Also recorded” adds a separate entry of the source. Where two headings read alike, the source gives them in different places.

Columns and labels:
[1] = system: A2780 (ovarian carcinoma cell line); experiment: Cytotoxicity test, IC50 determination by MTT test; format: cell-based; details: 24 hr incubation, 20000 cells/well, 10% serum, read-out: IC50 ± SD (MTT-Test), A2780
Description: (§1) Cytotoxicity Tests (IC50 Determination by MTT test)
(§2) The cytotoxicity of the compounds of the invention A1-A12 was tested in comparison to cis-Pt in four cancer cell-lines:
A2780 (ovarian carcinoma cell line), […]
(§3) HT-29 (Human colon adenocarcinoma grade II) by MTT test after an incubation of 24 hours.
(§4) Culture Medium Preparation for Attached Cell-lines: A2780, A2780cisR, CRL-5803, HT-29. • Medium RPMI-1640: 86% • Serum (FCS-fatal calf serum/FBS-fatal bovine serum): 10% • L-Glutamine: 1% • Antibiotics-penicillin-streptomycin(P/S): 1% • Na pyruvate: 1% • HEPES: 1%

[2] = system: CRL-5803 (non-small cell lung carcinoma cell line); experiment: Cytotoxicity test, IC50 determination by MTT test; format: cell-based; details: 24 hr incubation, 20000 cells/well, 10% serum, read-out: IC50 ± SD (MTT-Test), CRL5803
Description: as §1
(§5) The cytotoxicity of the compounds of the invention A1-A12 was tested in comparison to cis-Pt in four cancer cell-lines: […]
(§6) CRL-5803 (non-small cell lung carcinoma cell line), and
as §3, §4

[3] = system: HT-29 (Human colon adenocarcinoma grade II); experiment: Cytotoxicity test, IC50 determination by MTT test; format: cell-based; details: 24 hr incubation, 20000 cells/well, 10% serum, read-out: IC50 ± SD (MTT-Test), HT-29
Description: as §1, §5, §3, §4

[4] = system: A2780cisR (ovarian carcinoma-cisPt resistance cell line); experiment: Cytotoxicity test, IC50 determination by MTT test; format: cell-based; details: 24 hr incubation, 20000 cells/well, 10% serum, read-out: IC50 ± SD (MTT-Test), A2780cisR
Description: as §1, §5
A2780cisR (ovarian carcinoma-cisPt resistance cell line), […]
as §3, §4

[5] = Solubility of compounds in DMSO, ethanol and Solutol-HS15 (20 mM stock solutions); format: physicochemical
Description: General Procedure for the Solutol Emulsions Preparation
The amino-alcohol compound of the invention (4 μmol) was mixed with Solutol HS15 (6.0 mg) and heated to 70-80° C. Hot water (1 ml) was added to the mixture and stirred thoroughly. Thickening occurs initially due to hydration and reaches a maximum when half of the water has been added. The viscosity decreases as more water is added.
The solubility of compounds of the invention in ethanol and DMSO was tested in order to study their cytotoxicity.

[6] = system: SPM formation in A2780cisR cells; experiment: Enzymatic assay in cells: formation of fluorescent SPM from Bodipy-12-CER (SMS inhibition), HPLC; format: cell-based; details: 72 hr incubation in total, related to the control
Description: (§7) Enzymatic Assay in Cells (SMS, GCS and CDase Enzyme inhibition Studies) • Plate 10,000 cells in 0.5 ml culture media per well in a 48 well plate. • Incubate (37° C., 5% CO2) overnight to allow the cells to attach to the wells. • Add 10 μl of the fluorescent reagent BodiPy-12-Cer 0.5 μM/well. • After 48 hr incubation with the BodiPy-12-Cer, add 10 μl of the drug of interest dissolved in DMSO/Ethanol/solutol to each well. • Incubate (37° C., 5% CO2) for another 24 hr. • Remove the media. • Wash each well with 200 μl PBS. • Add 2000 trypsin allow sitting for 5 minutes in incubator. • Neutralize Trypsin with culture medium (complete to 1 ml) • Add suspension to 1.5 ml ephendorf. • Centrifuge for 5 minutes at 1200 rpm then remove the media. • Extract the cells with 1 ml of 1:2 CH2Cl2:MeOH by strong vortex stirring followed by centrifuge for 5 minutes at 13400 rpm. Then add the extraction into 2 ml ephendorf. • Extract the cells again with the same procedure with 1 ml of 1:1 CH2Cl2:MeOH. • Remove the solvent. • Add 2000 ethanol into the 2 ml ephendorf, do strong vortex stirring followed by centrifuge for 5 minutes at 13400 rpm. • Take 150 μl of the above sample and inject to the HPLC to quantify the relative metabolite relatively to control samples. • HPLC method conditions are:
(§8) Conditions: RP-8 Column, EX. λ 505 nm, EM. λ 530 nm
(§9) A fluorescent procedure was utilized in order to study the enzymatic inhibition of glucosylceramide synthase (GCS), ceramidases (CDase) and sphingomyelin synthase (SMS) enzymes, which can shed some light on a possible mechanism for ceramide accumulation and apoptosis. The fluorescent procedure was based on a 48-hr incubation of cancer cells with the fluorescent substrate, Bodipy (4,4-difluoro-4-bora-3a,4a-diaza-s-indacene), conjugated ceramide (Bodipy-12-CER) followed by another 24-hr period of incubation in the presence of nontoxic concentrations of compounds of the invention (72 hr incubation in total). After a predetermine incubation period, cells were washed, their lipids were extracted and the various lipids containing fluorescent fatty acid-ceramide, SPM and GC were quantified by HPLC.

[7] = system: SPM formation in A2780 cells; experiment: as above; format: cell-based; details: 72 hr incubation in total, related to the control
Description: as §7, §8, §9

Caspase-3 = experiment: Apoptosis determination by Caspase-3 assay (EnzCheck Caspase-3 Assay Kit #2); format: cell-based; details: 8 hr incubation
Description: Apoptosis Determination by Caspase-3 Assay
The assay was done according to the protocol of EnzCheck Caspase-3 Assay Kit #2 (Invitrogen) [Ref: 4].
Caspase-3 was checked using invitrogene protocol. 8 hr incubation was done.

[8] = system: SPM formation in CRL5803 cells; experiment: Enzymatic assay in cells: formation of fluorescent SPM from Bodipy-12-CER (SMS inhibition), HPLC; format: cell-based; details: nontoxic concentrations (A2: 4, 6, 8, 12 μM/well; A10: 0.5, 1, 2, 4 μM/well), 72 hr
Description: as §7, §8, §9

[9] = system: A2780, A2780cisR, CRL-5803, HT-29; experiment: Cytotoxicity (MTT), overall statements on the four cancer cell-lines; format: cell-based; details: 24 hr, compared to cis-Pt
Description: as §1, §2
A2780 (ovarian carcinoma cell line),
A2780cisR (ovarian carcinoma-cisPt resistance cell line),
as §6, §3, §4

[10] = system: SPM formation in HT-29 cells; experiment: Enzymatic assay in cells: formation of fluorescent SPM from Bodipy-12-CER (SMS inhibition), HPLC; format: cell-based, Human; details: nontoxic concentrations (A2: 4, 6, 8, 12 μM/well; A10: 0.5, 1, 2, 4 μM/well), 72 hr
Description: as §7
Conditions: RP-8 Column, EX. λ 505 nm, EM. λ 530 nm […]

[11] = Homo sapiens, A2780, solutol solutions
[12] = Homo sapiens, HT-29, solutol solutions
[13] = Homo sapiens, A2780cisR, solutol solutions
[14] = Solutol-HS15 lipidic emulsion, aqueous with cosolvent or surfactant or cyclodextrin, read-out: Solubility, Solutol-HS15
[15] = organic solvent or mixture, DMSO, 20 mM stock solutions, read-out: Solubility, DMSO
[16] = organic solvent or mixture, ethanol, 20 mM stock solutions, read-out: Solubility, Ethanol
[17] = Homo sapiens, A2780, ethanol solutions
[18] = Homo sapiens, HT-29, ethanol solutions
[19] = Homo sapiens, A2780cisR, ethanol solutions

Structure (SMILES) | IC50 [1, 11] [µM] | IC50 ([2]; solutol solutions) [µM] | IC50 [3, 12] [µM] | IC50 [4, 13] [µM] | solubility [5, 14] [mM] | solubility [5, 15] [mM] | solubility [5, 16] [mM] | IC50 ([2]; ethanol solutions) [µM] | Solubility, Ethanol ([5]; ethanol, 20 mM stock solutions) | IC50 ([1]; ethanol solutions) [µM] | IC50 ([3]; ethanol solutions) [µM] | IC50 ([4]; ethanol solutions) [µM] | other results
CCCCCCCCCCCCCCCCC(O)CN(CC)CC (stereo not drawn) [Compound A1, 1-DEA-amino-octadecan-2-ol] | 17 ± 4 | 40 ± 3 | 24 ± 4 | 21 ± 1 | > 4 | > 20 | > 20 |  |  |  |  |  | solubility in ethanol and DMSO ([5]; 20 mM stock solutions): good solubility in both solvents
CCCCCCCCCCCCCCCCC(O)CNCCCC (stereo not drawn) [Compound A2, 1-Butyl-amino-octadecan-2-ol] | 11 ± 3 | 32 ± 4 | 16 ± 2 | 12 ± 3 | > 4 |  | < 20 |  |  |  |  |  | inhibition of SPM formation ([6]; 6 μM): no significant effect; inhibition at 6 µM ([7]; Homo sapiens, 6 μM): ~10%; Caspase-3 increase (Caspase-3; 20 μM): 3 fold; solubility in ethanol and DMSO ([5]; 20 mM stock solutions): only soluble in DMSO; Solubility, DMSO ([5]; DMSO, 20 mM stock solutions): ✓*
CCCCCCCCCCCCCCCCC(O)CNCCCCCC (stereo not drawn) [Compound A3, 1-Hexyl-amino-octadecan-2-ol] | 11 ± 1 | 18 ± 2 | 19 ± 5 | 9 ± 1 | > 4 | < 20 | < 20 |  |  |  |  |  | 
CCCCCCCCCCCCCCCCC(O)CNCCCCCCCC (stereo not drawn) [Compound A4, 1-Octyl-amino-octadecan-2-ol] | 14 ± 3 | 29 ± 4 | 15 ± 6 | 12 ± 2 | > 4 | < 20 | < 20 |  |  |  |  |  | 
CCCCCCCCCCCCCCCCC(O)CNCCCCCCCCCCCC (stereo not drawn) [Compound A5, 1-Dodecyl-amino-octadecan-2-ol] | > 100 | > 100 | > 100 | > 100 | > 4 | < 20 | < 20 |  |  |  |  |  | 
CCCCCCCCCC(O)CNCCCCCC (stereo not drawn) [Compound A8, 1-Hexyl-amino-undecan-2-ol] |  |  |  |  |  | > 20 | > 20 | 33 ± 6 |  |  |  |  | IC50 [1, 17]: 16 ± 1 µM; IC50 [3, 18]: 33 ± 4 µM; IC50 [4, 19]: 22 ± 3 µM
CCCCCCCCCC(O)CNCCCCCCCC (stereo not drawn) [Compound A9, 1-Octyl-amino-undecan-2-ol] |  |  |  |  |  | < 20 |  | 14 ± 1 | ✓* |  |  |  | IC50 [1, 17]: 7 ± 1 µM; IC50 [3, 18]: 11 ± 2 µM; IC50 [4, 19]: 10 ± 1 µM
CCCCCCCCCCCCNCC(O)CCCCCCCCC (stereo not drawn) [Compound A10, 1-Dodecyl-amino-undecan-2-ol] |  |  |  |  |  |  |  | 10 ± 2 | ✓* | 4 ± 1 | 8 ± 2 | 4 ± 1 | SPM formation related to the control (in words) [8]: reduction in SPM formation; effect on SPM formation ([6]; 0.5 μM): ~8%; effect on SPM formation ([7]; 0.5 μM): about 22%; anticancer activity (in words) [9]: most active; also recorded: highest activity; Caspase-3 increase (Caspase-3; 10 μM): 7 fold; SPM formation related to the control (in words) [10]: reduction in SPM formation
CCCCCCCCCCCCCCNCC(O)CCCCCCCCC (stereo not drawn) [Compound A11, 1-tetradecyl-amino-undecan-2-ol] |  |  |  |  |  |  |  | 33 ± 6 | ✓* | 9 ± 2 | 30 ± 7 | 9 ± 3 | 
CCCCCCCCCCCCCCCCNCC(O)CCCCCCCCC (stereo not drawn) [Compound A12, 1-hexadecyl-amino-undecan-2-ol] |  |  |  |  |  |  |  | > 100 | ✓* | > 100 | > 100 | > 100 | 
N.N.[Cl][Pt][Cl] [cis-Pt, reference compound] |  | > 100 |  |  |  |  |  | > 100 |  | 30 ± 1 | > 100 | > 100 | IC50 ([1]; solutol solutions): 30 ± 1 µM; IC50 ([3]; solutol solutions): > 100 µM; IC50 ([4]; solutol solutions): > 100 µM
